Format in all cases: cell-based
Assay [1] addresses T1, UDP-glucose receptor 2211 (Homo sapiens, UniProt Q15391, A193V/A252V/A98V/F243I/K54E).
T1 construct: The entire UDPG receptor gene was mutagenized via error-prone mutagenesis; expressed in transfected cells; host or cells: Saccharomyces cerevisiae CY10560 (growth) / CY10981 with Cp1021 FUS1-LacZ (β-galactosidase)
T1 sequence (Q15391 1-338 K54E/A98V/A193V/F243I/A252V): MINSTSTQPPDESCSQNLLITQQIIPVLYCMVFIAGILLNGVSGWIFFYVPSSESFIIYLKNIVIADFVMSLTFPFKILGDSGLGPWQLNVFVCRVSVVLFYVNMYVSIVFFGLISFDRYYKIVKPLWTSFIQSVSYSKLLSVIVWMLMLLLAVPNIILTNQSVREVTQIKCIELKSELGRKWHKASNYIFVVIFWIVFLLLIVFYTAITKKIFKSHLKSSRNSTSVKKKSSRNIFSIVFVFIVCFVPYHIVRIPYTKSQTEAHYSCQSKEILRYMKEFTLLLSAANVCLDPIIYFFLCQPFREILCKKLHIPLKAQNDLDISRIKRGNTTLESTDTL
Put plainly: β-galactosidase reporter assay in yeast, mutant 2211 receptor. Here is the method: (§1) Strains and plasmids. Mutagenesis and selection were performed in yeast strain […] can1-100 […] […] […] ura3-52). β-Galactosidase assays were performed using yeast strain CY10981 (PFUS1-HIS3 can1-100 […] […] […] ura3-52) carrying plasmid Cp1021 (PFUS1-LacZ 2 μm URA3).
A general note: Reporter assays use an easily measured gene product as a stand-in for the process of interest.

Assay [2] addresses T2, UDPG receptor mutant H-20 (Homo sapiens, UniProt Q15391, A193V/A252V/A98V/F243I/I251T/K54E/R253K).
T2 construct: The entire UDPG receptor gene was mutagenized via error-prone mutagenesis; expressed in transfected cells; host or cells: Saccharomyces cerevisiae CY10560 (growth) / CY10981 with Cp1021 FUS1-LacZ (β-galactosidase)
T2 sequence (Q15391 1-338 K54E/A98V/A193V/F243I/I251T/A252V/R253K): T1 sequence (Q15391 1-338 K54E/A98V/A193V/F243I/A252V) with I251T, R253K
Put plainly: β-galactosidase reporter assay in yeast, mutant H-20 receptor. Here is the method:
as §1

For another assay, the target named is T3, UDPG receptor mutant K-3 (Homo sapiens, UniProt Q15391, A193V/A252V/A98V/E278G/F243I/I251T/K54E/R253K).
T3 construct: The entire UDPG receptor gene was mutagenized via error-prone mutagenesis; expressed in transfected cells; host or cells: Saccharomyces cerevisiae CY10560 (growth) / CY10981 with Cp1021 FUS1-LacZ (β-galactosidase)
T3 sequence (Q15391 1-338 K54E/A98V/A193V/F243I/I251T/A252V/R253K/E278G): T1 sequence (Q15391 1-338 K54E/A98V/A193V/F243I/A252V) with I251T, R253K, E278G
In words: β-galactosidase reporter assay in yeast, mutant K-3 receptor. Here is the method: as §1

The target of assay [3] is T4, wild type UDPG receptor (P2Y14) (Homo sapiens, UniProt Q15391).
T4 construct: The entire UDPG receptor gene was mutagenized via error-prone mutagenesis; expressed in transfected cells; host or cells: Saccharomyces cerevisiae CY10560 (growth) / CY10981 with Cp1021 FUS1-LacZ (β-galactosidase)
T4 sequence (Q15391 1-338): T1 sequence (Q15391 1-338 K54E/A98V/A193V/F243I/A252V) with E54K, V98A, V193A, I243F, V252A
Put plainly: β-galactosidase reporter assay in yeast, wild type receptor.

The next assay deals with T5, K-3 mutant (Homo sapiens, UniProt Q15391, A193V/A252V/A98V/E278G/F243I/I251T/K54E/R253K).
T5 construct: The entire UDPG receptor gene was mutagenized via error-prone mutagenesis; expressed in transfected cells; host or cells: Saccharomyces cerevisiae CY10560 (growth) / CY10981 with Cp1021 FUS1-LacZ (β-galactosidase)
T5 sequence (Q15391 1-338 K54E/A98V/A193V/F243I/I251T/A252V/R253K/E278G): T1 sequence (Q15391 1-338 K54E/A98V/A193V/F243I/A252V) with I251T, R253K, E278G
Put plainly: Yeast growth assay, mutant K-3 receptor. To be noted: relative to parent H-20. From the text: Targeted mutagenesis and selection of functional receptor mutants. To generate targeted mutants, oligonucleotides with randomized sequences, corresponding to the codons to be mutagenized, were utilized to generate overlapping PCR products. The method and many applicable variations thereof are known in the art.
The HTVK mutant, designated H-20, was selected as the template for mutagenesis of three additional motifs, ‘AxxFY’ and ‘NMY’ in TM3, and ‘KExT’ in TM7.

Substitutions are numbered along the chain they refer to. “Also recorded” adds a separate entry of the source.

Turning to `O=c1ccn([C@@H]2O[C@H](COP(=O)(O)OP(=O)(O)O)[C@@H](O)[C@H]2O)c(=O)[nH]1` [UDP, uridine diphosphate], in assay [1], the “agonist/antagonist character at 2211 receptor” value is recorded as “weakly activated; also recorded: competitive inhibitor; also recorded: primarily as an antagonist”. Besides, in assay [1] (UDP antagonism of UDP-glucose agonist activity, FIG. 2 Panel B), the “Slope of the linear fit, Schild regression” value was about 0.8. Further, in assay [2], the “agonist/antagonist character at H-20 receptor” value is recorded as “increasingly strong partial agonist”. The “agonist/antagonist character at K-3 receptor” value at UDPG receptor mutant K-3 is “at least a partial agonist; also recorded: increasingly strong partial agonist”. In assay [3], the “agonist/antagonist character at wild type receptor” value is “primarily as an antagonist”. In addition, the “growth in response to ligand” value at K-3 mutant is “grew in the presence”.

The values above are taken from patent US20080070794A1, “Chemical sensors” (The Trustees of Princeton University, priority 2005, published 2008).
